The text below walks through data of PubChem BioAssay (NCI).

Among the test systems are SNB-19 CNS; K-562 leukemia; TK-10 renal; SR leukemia; SF-295 CNS; A498 renal; SK-MEL-5 melanoma; NCI-H460 lung; SW-620 colon; EKVX NSCLC.
Common to all, as to assay: NCI-60 cell line screen, 48 h

“And” between values parts separate entries of the source, which are not always exact repeats. Equal values may be shown once.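 All cell lines were grown in 96-well plates and treated with compound for 48 hours. Here, GI50 denotes the concentration required for 50% inhibition of growth. The concentration for full growth arrest is given as TGI.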

For the compound `O=C(/C=C\c1ccc(Cl)cc1Cl)c1cccs1`, the TGI with SNB-19 CNS is 33.7 µM; in the test with K-562 leukemia it was more than 100 µM; in the test on TK-10 renal, 78.9 µM; in the test on SR leukemia it was more than 100 µM; in the test with SF-295 CNS it was 37.9 µM; in the test with A498 renal it was 39 µM. Further, the TGI stood at 29.9 µM in the test with SK-MEL-5 melanoma, 89.5 µM in the test with NCI-H460 lung, 28.8 µM with SW-620 colon and 34.3 µM with EKVX NSCLC.
With `NC1=N/C(=C2/CCNC(=O)c3[nH]c(Br)cc32)C(=O)N1`, the TGI was more than 100 µM in the test with SNB-19 CNS; more than 100 µM with K-562 leukemia; more than 54.9 µM in the test with TK-10 renal; 2.25 µM in the test with SR leukemia; more than 100 µM in the test with SF-295 CNS; more than 100 µM in the test on A498 renal. Besides, the TGI in the test with SK-MEL-5 melanoma, in the test on NCI-H460 lung, with SW-620 colon and with EKVX NSCLC was more than 100 µM in each case. The GI50 with A498 renal was 45.9 µM and > 100 µM; in the test on SK-MEL-5 melanoma, 19.7 µM and 40.6 µM; with SW-620 colon, 2.71 µM and 6.12 µM.
With `NS(=O)(=O)c1ccc(CCN=C=S)cc1`, the GI50 with SNB-19 CNS was 2.92 µM; in the test on K-562 leukemia it was 2.54 µM; in the test with TK-10 renal, 0.987 µM; in the test on SR leukemia, 2.44 µM; in the test on SF-295 CNS, 14.6 µM; in the test on A498 renal it was 2.21 µM. In addition, the GI50 in the test on SK-MEL-5 melanoma is 2.14 µM; in the test on NCI-H460 lung it was 3.53 µM; in the test with SW-620 colon, 1.84 µM; in the test on EKVX NSCLC it was 2.35 µM. The TGI in the test on SNB-19 CNS was 9.26 µM; in the test on K-562 leukemia it was more than 100 µM; in the test on TK-10 renal, 3.79 µM; in the test with SR leukemia, more than 100 µM; in the test with SF-295 CNS, 27.8 µM; in the test with A498 renal, 7.99 µM. Moreover, the TGI in the test on SK-MEL-5 melanoma is 4.89 µM; in the test with NCI-H460 lung, 13.1 µM; in the test on SW-620 colon, 3.96 µM; with EKVX NSCLC, 6.23 µM.
As to `COC(=O)CCC/C=C\C[C@H]1C=CC(=O)/C1=C/C[C@@H](O)C/C=C\CC(F)(F)F`, the GI50 is 2.99 µM in the test with SNB-19 CNS; 0.789 µM in the test with K-562 leukemia; 3.22 µM with TK-10 renal; 0.384 µM in the test on SR leukemia; 2.51 µM in the test on SF-295 CNS; 2.47 µM in the test on A498 renal. Also, the GI50 in the test on SK-MEL-5 melanoma was 1.64 µM; with NCI-H460 lung, 3.04 µM; in the test on SW-620 colon, 1.89 µM; in the test on EKVX NSCLC, 4.04 µM. Further, the TGI was determined as 14.2 µM with SNB-19 CNS; 28.3 µM with K-562 leukemia; 10.8 µM in the test on TK-10 renal; 5.44 µM in the test with SR leukemia; 5.82 µM with SF-295 CNS; 4.57 µM in the test with A498 renal. The TGI was found to be 3.05 µM with SK-MEL-5 melanoma, 10.6 µM in the test with NCI-H460 lung, 12.4 µM in the test with SW-620 colon and 14.6 µM in the test on EKVX NSCLC.
For `CC1OC(OCC2COC(O)(Oc3c(-c4ccc(O)c(O)c4)oc4cc(O)cc(O)c4c3=O)C(O)C2O)C(O)C(O)C1O` (stereo not drawn), the TGI with SNB-19 CNS, in the test with K-562 leukemia, with TK-10 renal, in the test on SR leukemia, in the test with SF-295 CNS and in the test with A498 renal was more than 100 µM each time. Further, the TGI in the test with SK-MEL-5 melanoma, in the test on NCI-H460 lung, in the test with SW-620 colon and with EKVX NSCLC was more than 100 µM throughout.
